# Laboratory results: patent US11878975B2, “Substituted indole compounds useful as TLR inhibitors” (BRISTOL-MYERS SQUIBB COMPANY, priority 2017, dated 2024)
# Tests used:
# Format in all cases: cell-based
# human TLR9 = molecular target: T1, human TLR9 (Homo sapiens, UniProt Q9NR96); assay: TLR9 inhibition reporter assay (HEK-Blue cells, SEAP reporter, ODN2006 stimulation); details: HEK-Blue cells overexpressing human TLR9, SEAP reporter, ODN2006 5 nM
# T1 construct: host or cells: HEK-Blue cells
# T1 sequence (Q9NR96 26-1032): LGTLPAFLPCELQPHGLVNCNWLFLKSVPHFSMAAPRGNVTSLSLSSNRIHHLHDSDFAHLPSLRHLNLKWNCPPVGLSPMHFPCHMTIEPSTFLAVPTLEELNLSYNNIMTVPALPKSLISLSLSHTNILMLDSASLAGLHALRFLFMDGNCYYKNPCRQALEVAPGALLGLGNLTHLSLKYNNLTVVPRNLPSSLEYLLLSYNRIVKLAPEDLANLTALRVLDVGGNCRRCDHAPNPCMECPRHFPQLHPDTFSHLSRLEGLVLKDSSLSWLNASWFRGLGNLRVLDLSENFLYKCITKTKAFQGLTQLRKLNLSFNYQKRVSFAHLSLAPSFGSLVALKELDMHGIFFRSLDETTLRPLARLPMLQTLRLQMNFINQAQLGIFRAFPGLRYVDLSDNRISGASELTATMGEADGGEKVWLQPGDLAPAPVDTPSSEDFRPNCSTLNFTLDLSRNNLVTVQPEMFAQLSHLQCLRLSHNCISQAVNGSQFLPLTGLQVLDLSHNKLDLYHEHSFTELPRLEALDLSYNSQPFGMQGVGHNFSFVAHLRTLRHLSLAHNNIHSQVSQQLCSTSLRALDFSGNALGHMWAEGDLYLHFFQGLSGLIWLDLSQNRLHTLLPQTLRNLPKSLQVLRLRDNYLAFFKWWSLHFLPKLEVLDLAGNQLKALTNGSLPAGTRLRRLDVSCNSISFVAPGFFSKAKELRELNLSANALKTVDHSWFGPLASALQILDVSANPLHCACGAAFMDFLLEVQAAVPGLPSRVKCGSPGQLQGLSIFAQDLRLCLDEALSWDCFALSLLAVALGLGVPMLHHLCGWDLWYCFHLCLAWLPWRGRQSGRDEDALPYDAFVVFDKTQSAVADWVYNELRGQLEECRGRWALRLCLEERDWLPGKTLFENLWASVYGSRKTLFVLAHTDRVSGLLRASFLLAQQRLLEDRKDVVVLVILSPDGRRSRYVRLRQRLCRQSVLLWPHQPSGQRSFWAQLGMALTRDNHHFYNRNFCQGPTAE
# Procedure: (§1) TLR7/8/9 Inhibition Reporter Assays
# (§2) HEK-Blue™-cells (Invivogen) overexpressing human TLR7, TLR8 or TLR9 receptors were used for screening inhibitors of these receptors using an inducible SEAP (secreted embryonic alkaline phosphatase) reporter gene under the control of the IFN-β minimal promoter fused to five NF-κB and AP-1-binding sites. Briefly, cells are seeded into Greiner 384 well plates (15000 cells per well for TLR7, 20,000 for TLR8 and 25,000 for TLR9) and then treated with test compounds in DMSO to yield a final dose response concentration range of 0.05 nM-50 μM. After a 30 minute compound pre-treatment al room temperature, the cells are then stimulated with a TLR7 ligand (gardiquimod at a final concentration of 7.5 μM), TLR8 ligand (R848 at a final concentration of 15.9 μM) or TLR9 ligand (ODN2006 at a final concentration of 5 nM) to activate NF-κB and AP-1 which induce the production of SEAP. After a 22 hour incubation at 37° C., 5% CO2, SEAP levels are determined with the addition of HEK-Blue™ Detection reagent (Invivogen), a cell culture medium that allows for detection of SEAP, according to manufacturer's specifications. The percent inhibition is determined as the % reduction in the HEK-Blue signal present in wells treated with agonist plus DMSO alone compared to wells treated with a known inhibitor.
# human TLR8 = molecular target: T2, human TLR8 (Homo sapiens, UniProt Q9NR97); assay: TLR8 inhibition reporter assay (HEK-Blue cells, SEAP reporter, R848 stimulation); details: HEK-Blue cells overexpressing human TLR8, SEAP reporter, R848 15.9 μM
# T2 construct: host or cells: HEK-Blue cells
# T2 sequence (Q9NR97 27-1041): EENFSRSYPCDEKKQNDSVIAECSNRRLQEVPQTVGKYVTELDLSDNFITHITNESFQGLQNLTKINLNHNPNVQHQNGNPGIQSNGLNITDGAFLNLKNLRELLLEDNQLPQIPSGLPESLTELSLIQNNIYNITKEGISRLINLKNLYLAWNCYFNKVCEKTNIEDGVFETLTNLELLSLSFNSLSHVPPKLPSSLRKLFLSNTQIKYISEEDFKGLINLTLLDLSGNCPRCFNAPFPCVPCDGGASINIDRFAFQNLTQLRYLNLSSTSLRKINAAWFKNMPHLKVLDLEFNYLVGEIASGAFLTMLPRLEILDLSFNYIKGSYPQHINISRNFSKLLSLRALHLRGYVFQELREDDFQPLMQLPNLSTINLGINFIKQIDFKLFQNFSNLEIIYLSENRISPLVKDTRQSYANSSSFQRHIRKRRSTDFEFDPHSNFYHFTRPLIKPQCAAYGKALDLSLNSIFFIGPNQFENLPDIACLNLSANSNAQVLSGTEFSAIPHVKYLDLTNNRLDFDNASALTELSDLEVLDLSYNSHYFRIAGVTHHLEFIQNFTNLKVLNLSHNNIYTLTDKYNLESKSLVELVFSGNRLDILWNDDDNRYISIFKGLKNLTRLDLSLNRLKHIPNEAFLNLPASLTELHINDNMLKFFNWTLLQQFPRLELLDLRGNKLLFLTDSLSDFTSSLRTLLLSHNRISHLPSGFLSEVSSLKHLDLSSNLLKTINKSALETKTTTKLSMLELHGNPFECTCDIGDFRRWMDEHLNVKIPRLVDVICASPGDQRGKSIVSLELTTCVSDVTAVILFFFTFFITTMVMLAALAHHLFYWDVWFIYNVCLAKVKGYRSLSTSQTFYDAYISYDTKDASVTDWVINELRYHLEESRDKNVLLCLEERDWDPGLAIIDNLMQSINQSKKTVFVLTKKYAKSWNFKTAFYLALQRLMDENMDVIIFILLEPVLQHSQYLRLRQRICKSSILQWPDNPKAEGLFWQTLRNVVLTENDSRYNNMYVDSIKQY
# Procedure: as §1, §2
# human TLR7 = molecular target: T3, human TLR7 (Homo sapiens, UniProt Q9NYK1); assay: TLR7 inhibition reporter assay (HEK-Blue cells, SEAP reporter, gardiquimod stimulation); details: HEK-Blue cells overexpressing human TLR7, SEAP reporter, gardiquimod 7.5 μM
# T3 construct: host or cells: HEK-Blue cells
# T3 sequence (Q9NYK1 27-1049): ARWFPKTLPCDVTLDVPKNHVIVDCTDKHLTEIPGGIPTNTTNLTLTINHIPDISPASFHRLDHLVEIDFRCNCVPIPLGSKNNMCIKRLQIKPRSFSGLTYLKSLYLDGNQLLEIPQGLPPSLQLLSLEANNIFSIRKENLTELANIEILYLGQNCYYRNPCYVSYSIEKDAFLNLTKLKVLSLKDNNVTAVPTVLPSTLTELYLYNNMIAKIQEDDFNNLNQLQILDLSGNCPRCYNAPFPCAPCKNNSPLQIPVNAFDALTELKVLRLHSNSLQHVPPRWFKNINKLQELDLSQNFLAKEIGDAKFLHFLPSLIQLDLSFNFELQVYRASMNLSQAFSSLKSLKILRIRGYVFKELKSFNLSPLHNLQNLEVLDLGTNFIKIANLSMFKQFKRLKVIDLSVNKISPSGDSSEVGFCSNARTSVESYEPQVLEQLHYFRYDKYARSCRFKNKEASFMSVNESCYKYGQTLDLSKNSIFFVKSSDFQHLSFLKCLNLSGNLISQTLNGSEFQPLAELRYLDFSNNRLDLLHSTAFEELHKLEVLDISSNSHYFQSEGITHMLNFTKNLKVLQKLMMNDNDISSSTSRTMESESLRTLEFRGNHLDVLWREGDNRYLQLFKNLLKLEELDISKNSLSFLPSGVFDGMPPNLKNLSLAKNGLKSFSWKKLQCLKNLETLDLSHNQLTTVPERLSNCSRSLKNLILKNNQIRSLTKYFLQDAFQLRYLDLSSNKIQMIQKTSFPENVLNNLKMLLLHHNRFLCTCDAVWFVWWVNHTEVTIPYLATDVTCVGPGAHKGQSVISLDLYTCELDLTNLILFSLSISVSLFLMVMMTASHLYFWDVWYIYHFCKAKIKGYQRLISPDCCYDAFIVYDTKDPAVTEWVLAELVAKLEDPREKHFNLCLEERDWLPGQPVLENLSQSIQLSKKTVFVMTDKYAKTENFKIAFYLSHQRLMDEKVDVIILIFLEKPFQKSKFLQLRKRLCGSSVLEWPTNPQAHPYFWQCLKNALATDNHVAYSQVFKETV
# Procedure: as §1, §2
IC50 (human TLR9),IC50 (human TLR8),IC50 (human TLR7),Compound
357 nM,4.4 nM,–,CN[C@H](C)C(=O)N1CCCC(c2ccc3[nH]c(-c4cc(C)nc(C)c4)c(C(C)C)c3c2)C1 (stereo partly shown) [Example 221]
1830 nM,16 nM,2 nM,COc1cc(-c2[nH]c3ccc(C4CCCN(CC(=O)N(C)C)C4)cc3c2C(C)C)cn2ncnc12 (stereo not shown) [Example 224]
44600 nM,16 nM,2 nM,Cc1cc(-c2[nH]c3ccc(C4CCCN(C(=O)CN5CCOCC5)C4)cc3c2C(C)C)cc(C)n1 (stereo not shown) [Example 197]
4730 nM,12 nM,4 nM,COc1cc(-c2[nH]c3ccc(C4CCCN(CC(N)=O)C4)cc3c2C(C)C)cn2ncnc12 (stereo not shown) [Example 225]
1240 nM,0.75 nM,0.81 nM,COc1cc(-c2[nH]c3ccc(C4CCCN(C)C4)cc3c2C(C)C)cn2ncnc12 (stereo not shown) [Example 238]
> 50000 nM,31 nM,95 nM,Cc1cc(-c2[nH]c3ccc(C4CN(CCS(C)(=O)=O)CCO4)cc3c2C(C)C)cc(C)n1 (stereo not shown) [Example 353]
8180 nM,14 nM,3 nM,Cc1c(-c2[nH]c3ccc(C4CC5CN(CC(=O)N(C)C)CC5C4)cc3c2C(C)C)cn2ncnc2c1C (stereo not shown) [Example 507]
5570 nM,3.3 nM,2 nM,COc1cc(-c2[nH]c3ccc(C4CN(C)CCO4)cc3c2C(C)C)cn2ncnc12 (stereo not shown) [Example 299]
> 50000 nM,48 nM,54 nM,Cc1cc(-c2[nH]c3ccc(C4CN(CC(N)=O)CCO4)cc3c2C(C)C)cc(C)n1 (stereo not shown) [Example 327]
> 50000 nM,26 nM,32 nM,Cc1cc(-c2[nH]c3ccc(C4CCC(N5CCC(F)(F)CC5)CC4)cc3c2C(C)C)cn(C)c1=O (stereo not shown) [Example 466]
2620 nM,0.48 nM,0.5 nM,COc1cc(-c2[nH]c3ccc(C4CNC(C)(C)CO4)cc3c2C(C)C)cn2ncnc12 (stereo not shown) [Example 369]
45000 nM,114 nM,44 nM,Cc1cc(-c2[nH]c3ccc(C4CN(CC(N)=O)CCO4)cc3c2C(C)C)cc(C)n1 (stereo not shown) [Example 324]
28900 nM,19 nM,45 nM,Cc1c(-c2[nH]c3ccc(C4CCC(NC5COC5)CC4)cc3c2C(C)C)cn(C)c(=O)c1C (stereo not shown) [Example 474]
2850 nM,158 nM,279 nM,CC(C)c1c(-c2ccnc3[nH]ncc23)[nH]c2ccc(CN3CCCCC3)cc12 [Example 443]
1880 nM,1.8 nM,0.36 nM,"Cc1cc(-c2[nH]c3ccc(C4CCC(N(C)C5CC5)CC4)cc3c2C(C)C)cn2ncnc12 (single isomer, unassigned) [Example 9]"
3170 nM,45 nM,6 nM,"Cc1cc(-c2[nH]c3ccc(C4CCC(N)CC4)cc3c2C(C)C)cn2ncnc12 (single isomer, unassigned) [Example 4]"
530 nM,10 nM,10 nM,Cc1cc(-c2[nH]c3ccc(C4CN(C(=O)CN(C)C)CCO4)cc3c2C(C)C)cc(C)n1 (stereo not shown) [Example 336]
–,2.5 nM,1 nM,COc1cc(-c2[nH]c3ccc(C4CCC(NC(=O)CN5CC(CO)(CO)C5)CC4)cc3c2C(C)C)cn2ncnc12 (stereo not shown) [Example 134]
–,7.4 nM,23 nM,Cc1c(-c2[nH]c3ccc(C4CC(NC5COC5)C4)cc3c2C(C)C)cn2ncnc2c1C (stereo not shown) [Example 576]
–,4.5 nM,4 nM,Cc1c(-c2[nH]c3ccc(C4CC(NCC#N)C4)cc3c2C(C)C)cn2ncnc2c1C (stereo not shown) [Example 577]
–,4.7 nM,0.71 nM,CCN(CC)CC(=O)N1CCOC(c2ccc3[nH]c(-c4cc(OC)c5ncnn5c4)c(C(C)C)c3c2)C1 (stereo not shown) [Example 333]
19200 nM,7.2 nM,–,COc1cc(-c2[nH]c3ccc(C4CCC(NC(=O)CNCC5COC(C)(C)O5)CC4)cc3c2C(C)C)cn2ncnc12 (stereo not shown) [Example 136]
–,13 nM,19 nM,Cc1c(-c2[nH]c3ccc(C4CNC4)cc3c2C(C)C)cn(C)c(=O)c1C [Example 486]
–,590 nM,13 nM,"Cc1cc(-c2[nH]c3ccc(C4CCC(C)(O)CC4)cc3c2C(C)C)cc(C)n1 (single isomer, unassigned) [Example 170]"
